Results on four sequences are retold here after patent publication US20070128217A1 (priority 2003, published 2007).

Test [1] has as its system rabbit serum obtained by immunizing a rabbit with the SARS-CoV strain Frankfurt 1. The format is binding. Also on record: Binding of a rabbit serum to linear peptides / Binding of a rabbit serum to looped peptides / Rabbit serum linear peptides / Rabbit serum looped peptides / Binding of a rabbit serum to linear peptides of protein N of SARS-CoV Urbani (Rabbit serum linear peptides) / Binding of a rabbit serum to looped/cyclic peptides of protein N of SARS-CoV Urbani (Rabbit serum looped peptides): unit not given here.

For test [2], the system named is control sera (pooled serum of ten healthy LUMC hospital workers; commercial negative donor pooled serum from the Dutch bloodbank). The format is binding, human. The arrangement: Binding of Control serum LUMC to linear peptides / Binding of Control serum Blood-bank to linear peptides / Binding of Control serum LUMC to looped peptides / Binding of Control Serum Blood-Bank to Looped peptides / Binding of Control serum LUMC to linear peptides of the protein M of SARS-CoV Urbani / Binding of Control serum Blood-bank to linear peptides of the protein M of SARS-CoV Urbani / Binding of Control serum LUMC to looped peptides of the protein M of SARS-CoV Urbani / Binding of Control Serum Blood-Bank to Looped peptides of the protein M of SARS-CoV Urbani: unit not given here.

Test [3] has as its system antibodies in sera from SARS patients (sera 1a, 1b, 2, 6, 37, 62, London, SARS-yellow, SARS-green). The format is binding, human. The arrangement: Binding of serum 6 to linear peptides of protein X1 of SARS-CoV Urbani / Binding of serum 37 to linear peptides of protein X1 of SARS-CoV Urbani / Binding of serum 6 to looped/cyclic peptide (PEPSCAN-ELISA) / Binding of serum 37 to looped/cyclic peptide (PEPSCAN-ELISA) / Binding of serum 37 to looped/cyclic peptides of protein X1 of SARS-CoV Urbani / Binding of serum 6 to linear peptides of protein X2 / Binding of serum 37 to linear peptides of protein X2 / Binding of serum 37 to looped/cyclic peptides of protein X2 of SARS-CoV Urbani / Binding of serum 6 to linear peptides of protein M of SARS-CoV Urbani / Binding of serum 37 to linear peptides of protein M of SARS-CoV Urbani / Binding of serum 6 to looped/cyclic peptides of protein M of SARS-CoV Urbani / Binding of serum 37 to looped/cyclic peptides of protein M of SARS-CoV Urbani / Binding of serum 6 to linear peptides of protein X3 of SARS-CoV Urbani / Binding of serum 37 to linear peptides of protein X3 of SARS-CoV Urbani / Binding of serum 37 to looped/cyclic peptides of protein X3 of SARS-CoV Urbani / Binding of serum 6 to linear peptides of protein X4 of SARS-CoV Urbani / Binding of serum 37 to linear peptides of protein X4 of SARS-CoV Urbani / Binding of serum 37 to looped/cyclic peptides of protein X4 of SARS-CoV Urbani / Binding of serum 6 to linear peptides of protein X5 of SARS-CoV Urbani / Binding of serum 37 to linear peptides of protein X5 of SARS-CoV Urbani / Binding of serum 37 to looped/cyclic peptides of protein X5 of SARS-CoV Urbani / Binding of serum 6 to linear peptides of protein N of SARS-CoV Urbani / Binding of serum 37 to linear peptides of protein N of SARS-CoV Urbani / Binding of serum 6 to linear peptide (PEPSCAN-ELISA) / Binding of serum 1a to looped/cyclic peptides of protein N of SARS-CoV Urbani / Binding of serum 1b to looped/cyclic peptides of protein N of SARS-CoV Urbani / Binding of serum 2 to looped/cyclic peptides of protein N of SARS-CoV Urbani / Binding of serum 6 to looped/cyclic peptides of protein N of SARS-CoV Urbani / Binding of serum 37 to looped/cyclic peptides of protein N of SARS-CoV Urbani / Binding of serum 62 to looped/cyclic peptides of protein N of SARS-CoV Urbani / Binding of serum London to looped/cyclic peptides of protein N of SARS-CoV Urbani / Binding of serum SARS-green to looped/cyclic peptides of protein N of SARS-CoV Urbani: unit not given here.

As for LQCINACRIIMRCWL, in test [1], the “Recognition of the peptide by the rabbit serum” value is “recognized”. In addition, in test [2], the “Binding of Control Serum Blood-Bank to Looped peptides” value stood at 0.7, the “Binding of Control serum Blood-bank to linear peptides” value came out at 0.9, the “Binding of Control serum LUMC to linear peptides” value was determined as 0.7 and the “Binding of Control serum LUMC to looped peptides” value was 0.6. For the same sequence, in test [3], the “Binding of serum 1a to linear peptides of protein X1 of SARS-CoV Urbani” value is given as 0.7, the “Binding of serum 1a to looped/cyclic peptide (PEPSCAN-ELISA)” value came out at 0.5, the “Binding of serum 1b to linear peptides of protein X1 of SARS-CoV Urbani” value is given as 0.5 and the “Binding of serum 1b to looped/cyclic peptide (PEPSCAN-ELISA)” value came to 0.3. In test [3], the “Binding of serum 2 to linear peptides of protein X1 of SARS-CoV Urbani” value amounted to 0.5, the “Binding of serum 2 to looped/cyclic peptide (PEPSCAN-ELISA)” value is 0.6, the “Binding of serum 6 to linear peptides of protein X1 of SARS-CoV Urbani” value was found to be 0.6 and the “Binding of serum 6 to looped/cyclic peptide (PEPSCAN-ELISA)” value turned out to be 1.4. In test [3], the “Binding of serum 37 to linear peptides of protein X1 of SARS-CoV Urbani” value is given as 0.7, the “Binding of serum 37 to looped/cyclic peptide (PEPSCAN-ELISA)” value came out at 0.6, the “Binding of serum 62 to linear peptides of protein X1 of SARS-CoV Urbani” value is recorded as 0.6 and the “Binding of serum 62 to looped/cyclic peptide (PEPSCAN-ELISA)” value worked out at 0.9. For the same sequence, in test [3], the “Binding of serum London to linear peptides of protein X1 of SARS-CoV Urbani” value is 0.3, the “Binding of serum London to looped/cyclic peptide (PEPSCAN-ELISA)” value came to 1.7, the “Binding of serum SARS-green to linear peptides of protein X1 of SARS-CoV Urbani” value is 0.1 and the “Binding of serum SARS-green to looped/cyclic peptide (PEPSCAN-ELISA)” value came to 0.2. Besides, in test [3], the “Binding of serum SARS-yellow to linear peptides of protein X1 of SARS-CoV Urbani” value was found to be 0.3 and the “Binding of serum SARS-yellow to looped/cyclic peptide (PEPSCAN-ELISA)” value amounted to 0.4.
LQFAYSNRNRFLYII: in test [1], the “Rabbit serum linear peptides” value was determined as 0.6 and the “Rabbit serum looped peptides” value was 0.4. Moreover, in test [2], the “Binding of Control Serum Blood-Bank to Looped peptides of the protein M of SARS-CoV Urbani” value was 0.6, the “Binding of Control serum Blood-bank to linear peptides of the protein M of SARS-CoV Urbani” value was 0.6, the “Binding of Control serum LUMC to linear peptides of the protein M of SARS-CoV Urbani” value was found to be 0.4 and the “Binding of Control serum LUMC to looped peptides of the protein M of SARS-CoV Urbani” value was 0.6. In test [3], the “Binding of serum 1a to linear peptides of protein M of SARS-CoV Urbani” value is given as 0.7, the “Binding of serum 1a to looped/cyclic peptides of protein M of SARS-CoV Urbani” value is recorded as 0.7, the “Binding of serum 1b to linear peptides of protein M of SARS-CoV Urbani” value turned out to be 0.5 and the “Binding of serum 1b to looped/cyclic peptides of protein M of SARS-CoV Urbani” value is reported as 0.5. Moreover, in test [3], the “Binding of serum 2 to linear peptides of protein M of SARS-CoV Urbani” value came out at 0.6, the “Binding of serum 2 to looped/cyclic peptides of protein M of SARS-CoV Urbani” value is 0.5, the “Binding of serum 6 to linear peptides of protein M of SARS-CoV Urbani” value is given as 0.3 and the “Binding of serum 6 to looped/cyclic peptides of protein M of SARS-CoV Urbani” value was determined as 0.7. In addition, in test [3], the “Binding of serum 37 to linear peptides of protein M of SARS-CoV Urbani” value was found to be 0.7, the “Binding of serum 37 to looped/cyclic peptides of protein M of SARS-CoV Urbani” value came to 0.6, the “Binding of serum 62 to linear peptides of protein M of SARS-CoV Urbani” value is listed as 0.7 and the “Binding of serum 62 to looped/cyclic peptides of protein M of SARS-CoV Urbani” value turned out to be 0.6. Further, in test [3], the “Binding of serum London to linear peptides of protein M of SARS-CoV Urbani” value is recorded as 0.2, the “Binding of serum London to looped/cyclic peptides of protein M of SARS-CoV Urbani” value was found to be 0.2, the “Binding of serum SARS-green to linear peptides of protein M of SARS-CoV Urbani” value was determined as 0.2 and the “Binding of serum SARS-green to looped/cyclic peptides of protein M of SARS-CoV Urbani” value is recorded as 0.4. In test [3], the “Binding of serum SARS-yellow to linear peptides of protein M of SARS-CoV Urbani” value was determined as 0.0 and the “Binding of serum SARS-yellow to looped/cyclic peptides of protein M of SARS-CoV Urbani” value is 0.5.
For LQTLVLKMLHSSSLT, in test [1], the “Binding of a rabbit serum to linear peptides” value is reported as 0.3 and the “Binding of a rabbit serum to looped peptides” value stood at 0.3. Further, in test [2], the “Binding of Control Serum Blood-Bank to Looped peptides” value is listed as 0.5, the “Binding of Control serum Blood-bank to linear peptides” value is recorded as 0.7, the “Binding of Control serum LUMC to linear peptides” value amounted to 0.5 and the “Binding of Control serum LUMC to looped peptides” value was determined as 0.5. Besides, in test [3], the “Binding of serum 1a to linear peptides of protein X2” value stood at 0.7, the “Binding of serum 1a to looped/cyclic peptides of protein X2 of SARS-CoV Urbani” value was found to be 0.4, the “Binding of serum 1b to linear peptides of protein X2” value was 0.5 and the “Binding of serum 1b to looped/cyclic peptides of protein X2 of SARS-CoV Urbani” value is 0.4. In test [3], the “Binding of serum 2 to linear peptides of protein X2” value is reported as 0.5, the “Binding of serum 2 to looped/cyclic peptides of protein X2 of SARS-CoV Urbani” value was found to be 0.3, the “Binding of serum 6 to linear peptides of protein X2” value is 0.4 and the “Binding of serum 6 to looped/cyclic peptides of protein X2 of SARS-CoV Urbani” value is on record as 0.5. In test [3], the “Binding of serum 37 to linear peptides of protein X2” value came out at 0.6, the “Binding of serum 37 to looped/cyclic peptides of protein X2 of SARS-CoV Urbani” value amounted to 0.3, the “Binding of serum 62 to linear peptides of protein X2” value came to 0.6 and the “Binding of serum 62 to looped/cyclic peptides of protein X2 of SARS-CoV Urbani” value is given as 0.4. In addition, in test [3], the “Binding of serum London to linear peptides of protein X2” value is given as 0.4, the “Binding of serum London to looped/cyclic peptides of protein X2 of SARS-CoV Urbani” value is listed as 0.5, the “Binding of serum SARS-green to linear peptides of protein X2” value is on record as 0.5 and the “Binding of serum SARS-green to looped/cyclic peptides of protein X2 of SARS-CoV Urbani” value came out at 0.3. In addition, in test [3], the “Binding of serum SARS-yellow to linear peptides of protein X2” value came out at 0.7 and the “Binding of serum SARS-yellow to looped/cyclic peptides of protein X2 of SARS-CoV Urbani” value was 0.3.
Regarding LSLLKVTAFQHQNSK, in test [1], the “Binding of a rabbit serum to linear peptides” value came to 0.4 and the “Binding of a rabbit serum to looped peptides” value was 0.3. Besides, in test [2], the “Binding of Control Serum Blood-Bank to Looped peptides” value is 0.4, the “Binding of Control serum Blood-bank to linear peptides” value was 0.1, the “Binding of Control serum LUMC to linear peptides” value was determined as 0.4 and the “Binding of Control serum LUMC to looped peptides” value came to 0.3. In addition, in test [3], the “Binding of serum 1a to linear peptides of protein X2” value is reported as 0.4, the “Binding of serum 1a to looped/cyclic peptides of protein X2 of SARS-CoV Urbani” value was determined as 0.3, the “Binding of serum 1b to linear peptides of protein X2” value is 0.1 and the “Binding of serum 1b to looped/cyclic peptides of protein X2 of SARS-CoV Urbani” value was 0.2. Also, in test [3], the “Binding of serum 2 to linear peptides of protein X2” value is listed as 0.1, the “Binding of serum 2 to looped/cyclic peptides of protein X2 of SARS-CoV Urbani” value was 0.1, the “Binding of serum 6 to linear peptides of protein X2” value was found to be 0.2 and the “Binding of serum 6 to looped/cyclic peptides of protein X2 of SARS-CoV Urbani” value is 0.1. Further, in test [3], the “Binding of serum 37 to linear peptides of protein X2” value was 0.4, the “Binding of serum 37 to looped/cyclic peptides of protein X2 of SARS-CoV Urbani” value is listed as 0.2, the “Binding of serum 62 to linear peptides of protein X2” value amounted to 0.2 and the “Binding of serum 62 to looped/cyclic peptides of protein X2 of SARS-CoV Urbani” value is 0.3. In test [3], the “Binding of serum London to linear peptides of protein X2” value is listed as 0.2, the “Binding of serum London to looped/cyclic peptides of protein X2 of SARS-CoV Urbani” value came to 0.1, the “Binding of serum SARS-green to linear peptides of protein X2” value came to 0.1 and the “Binding of serum SARS-green to looped/cyclic peptides of protein X2 of SARS-CoV Urbani” value came out at 0.1. Further, in test [3], the “Binding of serum SARS-yellow to linear peptides of protein X2” value is 0.0 and the “Binding of serum SARS-yellow to looped/cyclic peptides of protein X2 of SARS-CoV Urbani” value is 0.2.
